According to PubChem BioAssay (NCI):
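Each compound was tested at five concentrations against cells in 96-well plates for 48 hours. Abbreviation: GI50, concentration required for 50% inhibition of growth. Definition used: TGI = concentration required for complete inhibition of growth.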

Assays:
Test in all cases: NCI-60 cell line screen, 48 h
SK-OV-3 ovarian = system: SK-OV-3 ovarian
RPMI-8226 leukemia = system: RPMI-8226 leukemia
SK-MEL-28 melanoma = system: SK-MEL-28 melanoma
NCI-H522 lung = system: NCI-H522 lung
OVCAR-5 ovarian = system: OVCAR-5 ovarian
CAKI-1 renal = system: CAKI-1 renal
TK-10 renal = system: TK-10 renal
HOP-62 NSCLC = system: HOP-62 NSCLC
ACHN renal = system: ACHN renal
HL-60(TB) leukemia = system: HL-60(TB) leukemia
NCI/ADR-RES ovarian = system: NCI/ADR-RES ovarian
LOX IMVI melanoma = system: LOX IMVI melanoma
HCT-116 colon = system: HCT-116 colon
A549 NSCLC = system: A549 NSCLC
T-47D breast = system: T-47D breast
SF-268 CNS = system: SF-268 CNS
HT29 colon = system: HT29 colon
SNB-19 CNS = system: SNB-19 CNS
SW-620 colon = system: SW-620 colon
MCF7 breast = system: MCF7 breast
SK-MEL-5 melanoma = system: SK-MEL-5 melanoma
MOLT-4 leukemia = system: MOLT-4 leukemia
KM12 colon = system: KM12 colon
UACC-257 melanoma = system: UACC-257 melanoma
NCI-H460 lung = system: NCI-H460 lung
RXF 393 renal = system: RXF 393 renal
UACC-62 melanoma = system: UACC-62 melanoma
HCT-15 colon = system: HCT-15 colon
OVCAR-3 ovarian = system: OVCAR-3 ovarian
SF-539 CNS = system: SF-539 CNS
SK-MEL-2 melanoma = system: SK-MEL-2 melanoma
MDA-MB-435 = system: MDA-MB-435
HOP-92 NSCLC = system: HOP-92 NSCLC
SR leukemia = system: SR leukemia
IGROV1 ovarian = system: IGROV1 ovarian
HCC-2998 colon = system: HCC-2998 colon
BT-549 breast = system: BT-549 breast
K-562 leukemia = system: K-562 leukemia
UO-31 renal = system: UO-31 renal
MALME-3M melanoma = system: MALME-3M melanoma
SF-295 CNS = system: SF-295 CNS
CCRF-CEM leukemia = system: CCRF-CEM leukemia
COLO 205 colon = system: COLO 205 colon
786-0 renal = system: 786-0 renal
MDA-MB-231 breast = system: MDA-MB-231 breast
DU-145 prostate = system: DU-145 prostate
NCI-H23 lung = system: NCI-H23 lung
SNB-75 CNS = system: SNB-75 CNS
HS 578T breast = system: HS 578T breast
PC-3 prostate = system: PC-3 prostate
NCI-H226 lung = system: NCI-H226 lung
U251 CNS = system: U251 CNS
OVCAR-8 ovarian = system: OVCAR-8 ovarian
OVCAR-4 ovarian = system: OVCAR-4 ovarian
EKVX NSCLC = system: EKVX NSCLC
M14 melanoma = system: M14 melanoma
SN12C renal = system: SN12C renal

C#Cc1cccc(NC(=O)C2CCCCN2C(=O)CCl)c1 (centres undefined)
GI50 (SK-OV-3 ovarian): > 82.5 µM
TGI (SK-OV-3 ovarian): > 82.5 µM
GI50 (RPMI-8226 leukemia): 18 µM
TGI (RPMI-8226 leukemia): 51.5 µM
GI50 (SK-MEL-28 melanoma): 54.1 µM
TGI (SK-MEL-28 melanoma): > 82.5 µM
GI50 (NCI-H522 lung): 8.72 µM
TGI (NCI-H522 lung): 24.4 µM
GI50 (OVCAR-5 ovarian): 13.1 µM
TGI (OVCAR-5 ovarian): 27.2 µM
GI50 (CAKI-1 renal): 13.4 µM
TGI (CAKI-1 renal): 26.3 µM
GI50 (TK-10 renal): 15.6 µM
TGI (TK-10 renal): 33.6 µM
GI50 (HOP-62 NSCLC): > 82.5 µM
TGI (HOP-62 NSCLC): > 82.5 µM
GI50 (ACHN renal): 13.1 µM
TGI (ACHN renal): 24.5 µM
GI50 (HL-60(TB) leukemia): 16.8 µM
TGI (HL-60(TB) leukemia): 51.7 µM
GI50 (NCI/ADR-RES ovarian): 16.5 µM
TGI (NCI/ADR-RES ovarian): 47.3 µM
GI50 (LOX IMVI melanoma): 7.6 µM
TGI (LOX IMVI melanoma): 18.6 µM
GI50 (HCT-116 colon): 13.7 µM
TGI (HCT-116 colon): 43.2 µM
GI50 (A549 NSCLC): > 82.5 µM
TGI (A549 NSCLC): > 82.5 µM
GI50 (T-47D breast): 16 µM
TGI (T-47D breast): > 82.5 µM
GI50 (SF-268 CNS): 21.1 µM
TGI (SF-268 CNS): 75.2 µM
GI50 (HT29 colon): 18.7 µM
TGI (HT29 colon): 41.9 µM
GI50 (SNB-19 CNS): > 82.5 µM
TGI (SNB-19 CNS): > 82.5 µM
GI50 (SW-620 colon): 12.1 µM
TGI (SW-620 colon): 31.5 µM
GI50 (MCF7 breast): 15.8 µM
TGI (MCF7 breast): > 82.5 µM
GI50 (SK-MEL-5 melanoma): 9.54 µM
TGI (SK-MEL-5 melanoma): 41.2 µM
GI50 (MOLT-4 leukemia): 12 µM
TGI (MOLT-4 leukemia): 52.9 µM
GI50 (KM12 colon): 37.1 µM
TGI (KM12 colon): > 82.5 µM
GI50 (UACC-257 melanoma): 26.2 µM
TGI (UACC-257 melanoma): > 82.5 µM
GI50 (NCI-H460 lung): 23.9 µM
TGI (NCI-H460 lung): > 82.5 µM
GI50 (RXF 393 renal): 13.4 µM
TGI (RXF 393 renal): 34.4 µM
GI50 (UACC-62 melanoma): 18.9 µM
TGI (UACC-62 melanoma): > 82.5 µM
GI50 (HCT-15 colon): 9.61 µM
TGI (HCT-15 colon): 23.4 µM
GI50 (OVCAR-3 ovarian): 10.1 µM
TGI (OVCAR-3 ovarian): 22.2 µM
GI50 (SF-539 CNS): 17.4 µM
TGI (SF-539 CNS): 49.4 µM
GI50 (SK-MEL-2 melanoma): 23.9 µM
TGI (SK-MEL-2 melanoma): > 82.5 µM
GI50 (MDA-MB-435): 15.8 µM
TGI (MDA-MB-435): 60.7 µM
GI50 (HOP-92 NSCLC): 12.5 µM
TGI (HOP-92 NSCLC): 43.3 µM
GI50 (SR leukemia): 3.6 µM
TGI (SR leukemia): 66.8 µM
GI50 (IGROV1 ovarian): 9.72 µM
TGI (IGROV1 ovarian): 27.1 µM
GI50 (HCC-2998 colon): 28.6 µM
TGI (HCC-2998 colon): > 82.5 µM
GI50 (BT-549 breast): 12.5 µM
TGI (BT-549 breast): 27.2 µM
GI50 (K-562 leukemia): 15.3 µM
TGI (K-562 leukemia): > 82.5 µM
GI50 (UO-31 renal): 13.6 µM
TGI (UO-31 renal): 25.7 µM
GI50 (MALME-3M melanoma): 9.93 µM
TGI (MALME-3M melanoma): 22.4 µM
GI50 (SF-295 CNS): > 82.5 µM
TGI (SF-295 CNS): > 82.5 µM
GI50 (CCRF-CEM leukemia): 3.99 µM
TGI (CCRF-CEM leukemia): 50.1 µM
GI50 (COLO 205 colon): 15.6 µM
TGI (COLO 205 colon): 34.7 µM
GI50 (786-0 renal): 16.2 µM
TGI (786-0 renal): 32 µM
GI50 (MDA-MB-231 breast): 13.1 µM
TGI (MDA-MB-231 breast): 28.7 µM
GI50 (DU-145 prostate): 24.4 µM
TGI (DU-145 prostate): > 82.5 µM
GI50 (NCI-H23 lung): 10.7 µM
TGI (NCI-H23 lung): 28.2 µM
GI50 (SNB-75 CNS): 17.9 µM
TGI (SNB-75 CNS): > 82.5 µM
GI50 (HS 578T breast): 18.4 µM
TGI (HS 578T breast): 76.4 µM
GI50 (PC-3 prostate): 32.9 µM
TGI (PC-3 prostate): > 82.5 µM
GI50 (NCI-H226 lung): 52.1 µM
TGI (NCI-H226 lung): > 82.5 µM
GI50 (U251 CNS): 15.1 µM
TGI (U251 CNS): 35.8 µM
GI50 (OVCAR-8 ovarian): 20.3 µM
TGI (OVCAR-8 ovarian): > 82.5 µM
GI50 (OVCAR-4 ovarian): 8.77 µM
TGI (OVCAR-4 ovarian): 24.5 µM
GI50 (EKVX NSCLC): > 82.5 µM
TGI (EKVX NSCLC): > 82.5 µM
GI50 (M14 melanoma): 18.8 µM
TGI (M14 melanoma): 74.9 µM
GI50 (SN12C renal): 12.2 µM
TGI (SN12C renal): 28.4 µM
